Data set [1] has as its system NanoLuc-EV71 reporter virus / EV71 virus. As to the kind of experiment: NanoLuc-EV71 reporter virus luciferase and viral RNA time course. The data set is classed as cell-based, enterovirus 71 (EV71). Particulars: 1.5 μM peptide pre-incubated with virus 1 hr, RD cells, luciferase at time points. How it is done: Fig 2 LL-18 and FF-18 inhibit EV71 infection at the early stages of infection. (A-B) NanoLuc-EV71 reporter virus (A) or EV71 virus (MOI = 1, B) was pre-incubated with 1.5 μM LL-18 or FF-18 for 1 hr before they were used to infect RD cells. Luciferase (A) or viral RNA (B) was determined at indicated time points. Viral RNAs were normalized to mock treated cells at 1 h.p.i. ***, P<0.001. (C-E) EV71 virus (MOI = 1) was either pre-incubated with 1.5 μM LL-18 before infection (-2 and -1 time points), added simultaneously with LL-18 (0 time point) or LL-18 was added at indicated time points post-infection (1, 2, 4, 7 time points) and viral VP1 expression (C), cell viability (D), or viral titer (E) was determined 24 h.p.i. ns, not significant; **, P<0.01; ***, P<0.001. (F-H) EV71 virus (MOI = 1) was either pre-incubated with 1.5 μM FF-18 before infection (-2 and -1 time points), added simultaneously with FF-18 (0 time point) or FF-18 was added at indicated time points post-infection (1, 2, 4, 7 time points) and viral VP1 expression (F), cell viability (G), or viral titer (H) was determined 24 h.p.i. ns, not significant; **, P<0.01; ***, P<0.001.
Full-length NanoLuc-EV71 reporter viruses and subgenomic EV71 replicon (SGR) were described previously. […] Nano luciferase and Renilla luciferase were measured with Nano-Glo or Renilla luciferase assay system from Promega (Madison, WI). […]

Another data set has as its system EV71 virus. As to the kind of experiment: Pre-incubation of RD cells with peptide, wash-out, then EV71 infection. The data set is classed as cell-based, enterovirus 71 (EV71). As to conditions: RD cells incubated with peptide 2 hrs, EV71 MOI = 1, cell viability 24 h.p.i (S3A Fig). As to the method:
Supplementary file ppat.1011967.s003.tif: S3 Fig LL-18 binds directly to virus particles. (A) RD cells were pre-incubated with indicated amounts of LL-18, FF-18, DL-37, or LL-37 for 2 hrs before they were washed extensively to remove unbound peptides. Cells were then infected with the EV71 virus (MOI = 1) and cell viability was determined 24 h.p.i. Values were normalized to uninfected RD cells. ***, P<0.001. (B). ^1H NMR spectra of FF-18 peptide in the absence or presence of EV71 virus (green line) or CVB5 virus (red line). (TIF) Click here for additional data file.

The next data set concerns RD cells. As to the kind of experiment: Cytotoxicity of peptides on RD cells (Cell Titer-Glo). The data set is classed as cell-based, human. Particulars: cell viability plotted against peptide concentration, Cell Titer-Glo (S1A-S1D Fig). As to the method:
To test whether Cathelicidin peptide (LL-37) and its analogues could inhibit enterovirus infection, we conducted viral infection inhibition test on RD cells, which are one of the most commonly used cells for enterovirus propagation. We first assessed the cytotoxicity of LL-37, LL-18, FF-18, and a short form of LL-37 (DL-37) (Fig 1A), and all the peptides tested have a CC50 over 50 μM (S1A–S1D Fig). We then chose lower concentrations to test their antiviral activity. […] In addition, EV71 infection could cause cytopathic effect (CPE) on RD cells, and peptide could rescue EV71-induced cell death as assayed by crystal violet staining (Fig 1E) or cellular ATP content measurement (Fig 1F).
Cell viability assays were carried out using the Cell Titer-Glo Luminescent Cell Viability Assay Kit (Promega, Madison, WI) following the manufacturer’s instructions. Luminescence signals were measured using a BioTek Neo2 microplate reader.
(A-D) Cell viability of RD cells treated with the indicated amount of DL-37 (A), LL-37 (B), LL-18 (C), or FF-18 (D) was plotted against peptide concentration, and the cytotoxicity was determined. (E) EV71 virus pre-incubated with indicated amounts of DL-37, and the cell viability was determined 24 h.p.i. ***, P<0.001. (F-G) CVB5 (F) or Echo7 (G) virus pre-incubated with 0.3, 0.9, or 1.5 μM of peptides were used to infect RD cells. Cell viability was determined 24 h.p.i. ***, P<0.001. (H-I) CVB5 (H) or Echo7 (I) virus pre-incubated with 3, 6, or 12 μM of peptides were used to infect RD cells. Cell viability was determined 24 h.p.i. ***, P<0.001. (TIF) Click here for additional data file.

Two sequences from paper PMC10846744, “Cathelicidin peptide analogues inhibit EV71 infection through blocking viral entry and uncoating” (PLOS Pathogens, 2024) can be followed below.

Where no end group is shown, it is not given here.

In the case of FRKSKEKIGKFFKRIVQRIFDFLRNLV [FF-18], the “inhibition of NanoLuc expression of NanoLuc-EV71 reporter virus” value in data set [1] was “could inhibit the expression of NanoLuc as early as 4 hrs post-infection”. Also, in the data set on EV71 virus, the “protection when cells are pre-incubated with peptide and unbound peptide washed out” value is “EV71 could still infect these treated cells and cause cell death”. Besides, the CC50 result in the data set with RD cells was “over 50 μM”.

For the sequence FRKSKEKIGKLFKRIVQRILDFLRNLV [LL-18], in data set [1], the “inhibition of NanoLuc expression of NanoLuc-EV71 reporter virus” value is recorded as “could inhibit the expression of NanoLuc as early as 4 hrs post-infection”. Further, in the data set on EV71 virus, the “protection when cells are pre-incubated with peptide and unbound peptide washed out” value is “EV71 could still infect these treated cells and cause cell death”. For the same sequence, in the data set with RD cells, the CC50 entry is “over 50 μM”.
